Key:
DNA sequence AGTACT = assay: Quantitative DNase I footprint titration, site AGTACT; assay type: binding; conditions: DNase I footprinting, pH 7.0, 22° C.
Experimental: (§1) A number of compounds according to this invention were screened for their ability to bind to three DNA sites, using DNase I footprinting.
(§2) The target sites and their complements are identified in bold underline.
(§3) The resulting duplexes were ligated to the large pUC19 XbaI/Pstl restriction fragment. […] (Sambrook et al., ibid.)
(§4) The polyamides were allowed to equilbrate at 22° C. for 16 h.

DNA sequence ACTACT = assay: Quantitative DNase I footprint titration, site ACTACT; assay type: binding; conditions: DNase I footprinting, pH 7.0, 22° C.
Experimental: as §1, §2, §3, §4

DNA sequence ATTACT = assay: Quantitative DNase I footprint titration, site ATTACT; assay type: binding; conditions: DNase I footprinting, pH 7.0, 22° C.
Experimental: as §1, §2, §3, §4

DNA sequence AATACT = assay: Quantitative DNase I footprint titration, site AATACT; assay type: binding; conditions: DNase I footprinting, pH 7.0, 22° C.
Experimental: as §1, §2, §3, §4

DNA sequence ACTAGT = assay: Quantitative DNase I footprint titration, site ACTAGT; assay type: binding; conditions: DNase I footprinting, pH 7.0, 22° C.
Experimental: as §1, §2, §3, §4

B. cereus ATCC 11778 = assay: NCCLS broth microdilution MIC, B. cereus ATCC 11778; assay type: cell-based; conditions: organism A = B. cereus ATCC 11778
Experimental: (§5) Compounds according to this invention were screened for their in vitro activities against selected species of bacteria and fungi. The minimal inhibition concentration (MIC) of these compounds was determined using the National Committee for Clinical Laboratory Standards (NCCLS) broth microdilution assay in microtiter plates, as set forth in: (1) the guidelines of the National Committee for Clinical Laboratory Standards (NCCLS) Document M7-A4 (NCCLS, 1997); (2) the guidelines of the National Committee for Clinical Laboratory Standards (NCCLS) Document M11-A4 (NCCLS, 1997); and (3) the guidelines and reference method of the National Committee for Clinical Laboratory Standards (NCCLS) Document M27-T (NCCLS, 1995). For antifungal essays, the method recommended in Murray, PR., 1995 Manual of Clinical Microbiology (ASM Press, Washington, D.C.), was employed.

C. albicans ATCC 38247 = assay: NCCLS broth microdilution MIC (antifungal), C. albicans ATCC 38247; assay type: cell-based; conditions: organism B = C. albicans ATCC 38247
Experimental: as §5

E. coli ATCC 25922 = assay: NCCLS broth microdilution MIC, E. coli ATCC 25922; assay type: cell-based; conditions: organism C = E. coli ATCC 25922
Experimental: as §5

E. faecalis ATCC 29212 = assay: NCCLS broth microdilution MIC, E. faecalis ATCC 29212; assay type: cell-based; conditions: organism D = E. faecalis ATCC 29212
Experimental: as §5

S. pneumoniae ATCC 49619 = assay: NCCLS broth microdilution MIC, S. pneumoniae ATCC 49619; assay type: cell-based; conditions: organism F = S. pneumoniae ATCC 49619
Experimental: as §5

S. aureus ATCC 29213 = assay: NCCLS broth microdilution MIC, S. aureus ATCC 29213; assay type: cell-based; conditions: organism G = S. aureus ATCC 29213
Experimental: as §5

S. aureus ATCC 13709 = assay: NCCLS broth microdilution MIC, S. aureus ATCC 13709; assay type: cell-based; conditions: organism E = S. aureus ATCC 13709
Experimental: as §5

E. faecium ATCC 51559 = assay: MIC against drug-resistant bacteria, E. faecium ATCC 51559; assay type: cell-based; conditions: organism A = E. faecium ATCC 51559, vancomycin resistant strain (VRE)
Experimental: as §5
(§6) Further, compounds (I) are effective against drug-resistant bacteria, as evidenced by the data in Table 2 below:
(§7) ATCC 27660 and ATCC 33591 are methycillin resistant strains of S. aureus (MRSA's). ATCC 51559 is a vancomycin resistant strain of E. faecium (VRE). ATCC 12228 is a methycillin resistant strain of S. epidermis (MRSE). ATCC 51422 is a penicillin resistant strain of S. pneumoniae.

S. aureus ATCC 27660 = assay: MIC against drug-resistant bacteria, S. aureus ATCC 27660; assay type: cell-based; conditions: organism B = S. aureus ATCC 27660, methycillin resistant strain (MRSA)
Experimental: as §5, §6, §7

S. aureus ATCC 33591 = assay: MIC against drug-resistant bacteria, S. aureus ATCC 33591; assay type: cell-based; conditions: organism C = S. aureus ATCC 33591, methycillin resistant strain (MRSA)
Experimental: as §5, §6, §7

S. epidermis ATCC 12228 = assay: MIC against drug-resistant bacteria, S. epidermis ATCC 12228; assay type: cell-based; conditions: organism D = S. epidermis ATCC 12228, methycillin resistant strain (MRSE)
Experimental: as §5, §6, §7

S. pneumoniae ATCC 51422 = assay: MIC against drug-resistant bacteria, S. pneumoniae ATCC 51422; assay type: cell-based; conditions: organism E = S. pneumoniae ATCC 51422, penicillin resistant strain
Experimental: as §5, §6, §7

Association Constant, Ka (DNA sequence AGTACT) [M⁻¹] | Association Constant, Ka (DNA sequence ACTACT) [M⁻¹] | Association Constant, Ka (DNA sequence ATTACT) [M⁻¹] | Association Constant, Ka (DNA sequence AATACT) [M⁻¹] | Association Constant, Ka (DNA sequence ACTAGT) [M⁻¹] | Minimum Inhibitory Concentration (MIC) (B. cereus ATCC 11778) | Minimum Inhibitory Concentration (MIC) (C. albicans ATCC 38247) [µg/mL] | Minimum Inhibitory Concentration (MIC) (E. coli ATCC 25922) | Minimum Inhibitory Concentration (MIC) (E. faecalis ATCC 29212) | Minimum Inhibitory Concentration (MIC) (S. pneumoniae ATCC 49619) | Minimum Inhibitory Concentration (MIC) (S. aureus ATCC 29213) | Minimum Inhibitory Concentration (MIC) (S. aureus ATCC 13709) | Minimum Inhibitoty Concentration (MIC) (E. faecium ATCC 51559) | Minimum Inhibitoty Concentration (MIC) (S. aureus ATCC 27660) | Minimum Inhibitoty Concentration (MIC) (S. aureus ATCC 33591) | Minimum Inhibitoty Concentration (MIC) (S. epidermis ATCC 12228) | Minimum Inhibitoty Concentration (MIC) (S. pneumoniae ATCC 51422) | Compound
3e+09 | 5e+08 | 5e+08 | 500000 | <1e+08 | – | – | – | – | – | – | – | – | – | – | – | – | CN(C)CCCNC(=O)CCNC(=O)c1cc(NC(=O)c2cc(NC(=O)c3cc(NC(=O)c4nc(NC(=O)CCCNC(=O)c5cc(NC(=O)c6cc(NC(=O)c7cc(NC(=O)c8nccn8C)cn7C)cn6C)cn5C)cn4C)cn3C)cn2C)cn1C [Compound A, reference compound]
1e+11 | 5e+09 | 5e+09 | 1e+09 | <1e+08 | – | – | – | – | – | – | – | – | – | – | – | – | CN(C)CCCNC(=O)CCNC(=O)c1cc(NC(=O)c2cc(NC(=O)c3cc(NC(=O)c4nc(NC(=O)CCCNC(=O)c5cc(NC(=O)c6cc(NC(=O)c7ccc8nc(-c9nccn9C)[nH]c8c7)cn6C)cn5C)cn4C)cn3C)cn2C)cn1C [Compound I-8]
– | – | – | – | – | >32 µg/mL | >32 | >32 µg/mL | >32 µg/mL | +++ (MIC ≦4) | + (MIC from 12 to 32, inclusive) | – | – | – | – | – | – | Cn1cc(NC(=O)c2cc(NC(=O)c3ccc4nc(-c5sccc5Cl)[nH]c4c3)cn2C)cc1C(=O)NCCN1CCOCC1 [Compound I-4]
1e+11 | 7e+09 | 7e+09 | 7e+09 | <1e+08 | – | – | – | – | – | – | – | – | – | – | – | – | CN(C)CCCNC(=O)CCNC(=O)c1cc(NC(=O)c2cc(NC(=O)c3cc(NC(=O)c4nc(NC(=O)CCCNC(=O)c5cc(NC(=O)c6cc(NC(=O)c7cc(NC(=O)c8nsc(NCCCN(C)C)c8Cl)cn7C)cn6C)cn5C)cn4C)cn3C)cn2C)cn1C [B, reference compound]
– | – | – | – | – | +++ (MIC ≦4) | >32 | >32 µg/mL | +++ (MIC ≦4) | +++ (MIC ≦4) | – | +++ (MIC ≦4) | +++ (MIC ≦4) | +++ (MIC ≦4) | +++ (MIC ≦4) | +++ (MIC ≦4) | +++ (MIC ≦4) | Cn1cc(NC(=O)c2ccc3nc(-c4cc(NC(=O)c5sccc5Cl)cn4C)[nH]c3c2)cc1C(=O)NCCN1CCOCC1 [Compound I-2]
– | – | – | – | – | +++ (MIC ≦4) | >32 | +++ (MIC ≦4) | +++ (MIC ≦4) | +++ (MIC ≦4) | – | +++ (MIC ≦4) | +++ (MIC ≦4) | +++ (MIC ≦4) | – | +++ (MIC ≦4) | +++ (MIC ≦4) | Cn1cc(NC(=O)c2sccc2Cl)cc1C(=O)Nc1cc(-c2nc3ccc(C(=O)NCCN4CCOCC4)cc3[nH]2)n(C)c1 [Compound I-3]
– | – | – | – | – | – | – | – | – | – | – | – | +++ (MIC ≦4) | +++ (MIC ≦4) | +++ (MIC ≦4) | +++ (MIC ≦4) | +++ (MIC ≦4) | Cn1cc(NC(=O)c2sccc2Cl)cc1C(=O)Nc1cc(-c2nc3ccc(C(=O)NCCN4CCSCC4)cc3[nH]2)n(C)c1 [Compound I-38]
– | – | – | – | – | – | – | – | – | – | – | – | +++ (MIC ≦4) | +++ (MIC ≦4) | +++ (MIC ≦4) | +++ (MIC ≦4) | +++ (MIC ≦4) | C[C@@H]1CN(CCNC(=O)c2ccc3nc(-c4cc(NC(=O)c5cc(NC(=O)c6cc7ccccc7cn6)cn5C)cn4C)[nH]c3c2)C[C@H](C)O1 [Compound I-29]
– | – | – | – | – | – | – | – | – | – | – | – | +++ (MIC ≦4) | +++ (MIC ≦4) | +++ (MIC ≦4) | +++ (MIC ≦4) | +++ (MIC ≦4) | Cn1cc(NC(=O)c2ccc3nc(-c4cc(NC(=O)c5ccc(F)cc5F)cn4C)[nH]c3c2)cc1C(=O)NCCN1CCCCC1 [Compound I-35]
– | – | – | – | – | >32 µg/mL | >32 | >32 µg/mL | >32 µg/mL | >32 µg/mL | >32 µg/mL | – | – | – | – | – | – | Cn1cc(NC(=O)c2cc(NC(=O)c3ccc4nc(-c5sc6ccccc6c5Cl)[nH]c4c3)cn2C)cc1C(=O)NCCN1CCOCC1 [Compound I-5]
– | – | – | – | – | +++ (MIC ≦4) | >32 | >32 µg/mL | +++ (MIC ≦4) | +++ (MIC ≦4) | – | +++ (MIC ≦4) | – | +++ (MIC ≦4) | – | – | – | Cn1cc(NC(=O)c2ccc3nc(-c4sccc4Cl)[nH]c3c2)cc1-c1nc2ccc(C(=O)NCCN3CCOCC3)cc2[nH]1 [Compound I-1]
– | – | – | – | – | – | – | – | – | – | – | – | +++ (MIC ≦4) | +++ (MIC ≦4) | +++ (MIC ≦4) | +++ (MIC ≦4) | +++ (MIC ≦4) | Cn1cc(NC(=O)c2ccc(Cl)cc2F)cc1C(=O)Nc1cc(-c2nc3ccc(C(=O)NCCN4CCOCC4)cc3[nH]2)n(C)c1 [Compound I-13]
– | – | – | – | – | >32 µg/mL | >32 | >32 µg/mL | >32 µg/mL | >32 µg/mL | >32 µg/mL | – | – | – | – | – | – | CN(C)CCCNC(=O)CCNC(=O)c1cc(NC(=O)c2cc(NC(=O)CCNC(=O)c3cc(NC(=O)c4ccc5nc(-c6cc(Br)c(Br)s6)[nH]c5c4)cn3C)cn2C)cn1C [Compound I-6]
– | – | – | – | – | – | – | – | – | – | – | – | +++ (MIC ≦4) | +++ (MIC ≦4) | +++ (MIC ≦4) | +++ (MIC ≦4) | +++ (MIC ≦4) | Cn1cc(NC(=O)c2ccc(Cl)cc2F)cc1C(=O)Nc1cc(-c2nc3ccc(C(=O)NCCN4CCCCC4)cc3[nH]2)n(C)c1 [Compound I-15]
– | – | – | – | – | – | – | – | – | – | – | – | +++ (MIC ≦4) | +++ (MIC ≦4) | +++ (MIC ≦4) | +++ (MIC ≦4) | +++ (MIC ≦4) | Cn1cc(NC(=O)c2sccc2Cl)cc1C(=O)Nc1cc(-c2nc3ccc(C(=O)NCCN4CCCCC4)cc3[nH]2)n(C)c1 [Compound I-36]
1e+11 | 5e+09 | 5e+09 | 1e+09 | <1e+08 | – | – | – | – | – | – | – | – | – | – | – | – | CN(C)CCCNC(=O)CCNC(=O)c1cc(NC(=O)c2cc(NC(=O)c3cc(NC(=O)c4nc(NC(=O)CCCNC(=O)c5cc(NC(=O)c6cc(NC(=O)c7ccc8nc(-c9nsc(Cl)c9Cl)[nH]c8c7)cn6C)cn5C)cn4C)cn3C)cn2C)cn1C [Compound I-9]

— patent publication US6716866B2, “Aryl-benzimidazole compounds having antiinfective activity” (GeneSoft Pharmaceuticals, Inc., priority 2001, dated 2004)
